From patent US20260193293A1, “PEPTIDES CAPABLE OF INHIBITING PROTEIN-PROTEIN INTERACTIONS AT GABAB1A SUBUNIT AND USES THEREOF” (UNIVERSITY OF COPENHAGEN, priority 2022, published 2026)
Read-outs that look alike come from different tables or passages of the source. Each block holds one compound with its values, some of them ahead of it. Non-standard residues stand in square brackets, D forms with d. Residues, ends and D or L forms follow the SMILES beside them. Phe(4-NH2) = Nc1ccc(C[C@H](N)C(=O)O)cc1; NMeT = CN[C@H](C(=O)O)[C@@H](C)O; NMeE = CN[C@@H](CCC(=O)O)C(=O)O

Target: Sushi domains (SD1/2) protein
Test: Fluorescence polarization (FP) competition assay with AJAP-1probe, calculated Ki
Assay type: binding
Method in brief: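 Ki values were derived from IC50s (sigmoidal fits, ≥ triplicate), with probe Kd obtained by saturation titration of SD1/2. Peptides displaced a 25 nM TAMRA-labelled probe; polarization read at 530/580 nm in 1% BSA-containing PBS, pH 7.4, room temperature.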

[1] = Table 12, deep mutational scanning validation variants of PIANPWT, read-out: Ki (nM) mean ± SEM
[2] = Table 9, Ala-, D-amino acids and N-methylation scans of PIANPWT, read-out: Ki (nM) mean ± SEM
[3] = Table 6, elongation and truncation scan of PIANP binding epitope, read-out: Ki (nM) mean ± SEM
[4] = Table 4, truncation and elongation scans of APP epitope, read-out: Ki (nM) mean ± SEM
[5] = Table 14, CPPs tagged peptides, read-out: Ki (nM) mean ± SEM

Compound: CC[C@H](C)[C@H](NC(=O)[C@H](C)NC(=O)[C@H](Cc1c[nH]c2ccccc12)NC(=O)[C@@H]1CCCN1C(C)=O)C(=O)N[C@H](C(=O)N[C@@H](Cc1c[nH]c2ccccc12)C(=O)NCC(=O)N1CCC[C@H]1C(=O)N(C)[C@H](C(=O)N[C@H](C(=O)N[C@@H](CO)C(=O)N[C@@H](CCCNC(=N)N)C(=O)N[C@@H](CCC(=O)O)C(=O)N[C@@H](CC(=O)O)C(N)=O)C(C)C)[C@@H](C)O)C(C)C (Ac-PWAIVWGP[NMeT]VSRED-NH2)
- Ki [2]: 1260 ± 27 nM

Compound: CC[C@H](C)[C@H](NC(=O)[C@H](C)NC(=O)[C@H](Cc1c[nH]c2ccccc12)NC(=O)[C@@H]1CCCN1C(C)=O)C(=O)N[C@H](C(=O)N[C@@H](Cc1c[nH]c2ccccc12)C(=O)NCC(=O)N1CCC[C@H]1C(=O)N[C@H](C(=O)N[C@@H](CC(=O)O)C(=O)N[C@@H](CO)C(=O)N[C@@H](CCCNC(=N)N)C(=O)N[C@@H](CCC(=O)O)C(=O)N[C@@H](CC(=O)O)C(N)=O)[C@@H](C)O)C(C)C [PWAIVWGPTDSRED] (Ac-PWAIVWGPTDSRED-NH2)
- Ki [1]: 417 ± 6 nM

Compound: EDDS(Aphe)VWWGGADTD (Ac-EDDS[Phe(4-NH2)]VWWGGADTD-NH2)
- Ki (Table 16, ncAAs incorporated peptides, read-out: Ki (nM) mean ± SEM): 184 ± 3 nM

Compound: CC[C@H](C)[C@H](NC(=O)[C@H](C)NC(=O)[C@H](Cc1c[nH]c2ccccc12)NC(=O)[C@@H]1CCCN1C(C)=O)C(=O)N[C@H](C(=O)N[C@@H](Cc1c[nH]c2ccccc12)C(=O)NCC(=O)N1CCC[C@H]1C(=O)N[C@H](C(=O)N[C@H](C(=O)N[C@@H](CO)C(=O)N[C@@H](CCCNC(=N)N)C(=O)N(C)[C@@H](CCC(=O)O)C(=O)N[C@@H](CC(=O)O)C(N)=O)C(C)C)[C@@H](C)O)C(C)C (Ac-PWAIVWGPTVSR[NMeE]D-NH2)
- Ki [2]: 523 ± 13 nM

Compound: CC[C@H](C)[C@H](NC(=O)[C@H](Cc1ccccc1)NC(=O)[C@H](CCC(=O)O)NC(=O)[C@@H](NC(=O)[C@H](CCC(=O)O)NC(C)=O)[C@@H](C)O)C(=O)N[C@@H](C)C(=O)N[C@@H](Cc1c[nH]c2ccccc12)C(=O)NCC(=O)N1CCC[C@H]1C(=O)N[C@H](C(=O)NCC(=O)N[C@@H](CC(=O)O)C(=O)N[C@@H](CC(=O)O)C(=O)N[C@@H](CC(=O)O)C(N)=O)[C@@H](C)O (Ac-ETEFIAWGPTGDDD-NH2)
- Ki (Table 11, deep mutational scanning validation variants of AJAP-1WT, read-out: Ki (nM) mean ± SEM): 27 ± 2 nM

Compound: CC(=O)N[C@@H](CCC(=O)O)C(=O)N[C@@H](CC(=O)O)C(=O)N[C@@H](CC(=O)O)C(=O)N[C@@H](CO)C(=O)N[C@@H](CC(=O)O)C(=O)N[C@H](C(=O)N[C@@H](Cc1c[nH]c2ccccc12)C(=O)N[C@@H](Cc1c[nH]c2ccccc12)C(=O)NCC(=O)N1CCC[C@H]1C(=O)N[C@H](C(=O)NCC(=O)N[C@@H](CC(=O)O)C(=O)N[C@@H](CCC(=O)O)C(=O)N[C@@H](CC(=O)O)C(N)=O)[C@@H](C)O)C(C)C [Peptide X, Ac-EDDSDVWWGPTGDED-NH2] (Ac-EDDSDVWWGPTGDED-NH2)
- Ki (Table 1, affinity maturation, mean ± SEM, n ≥ 3, read-out: Ki): 62 ± 1 nM
- Ki (Table 13, peptides for affinity maturation, read-out: Ki (nM) mean ± SEM): 62 ± 1 nM
- fold improved affinity compared to APPWT (relative to APPWT): ~10 fold

Compound: CC[C@H](C)[C@H](NC(=O)[C@H](C)NC(=O)[C@H](Cc1c[nH]c2ccccc12)NC(=O)[C@@H]1CCCN1C(C)=O)C(=O)N[C@H](C(=O)N[C@@H](Cc1c[nH]c2ccccc12)C(=O)NCC(=O)N1CCC[C@H]1C(=O)N[C@H](C(=O)N[C@H](C(=O)N[C@@H](C)C(=O)N[C@@H](CCCNC(=N)N)C(=O)N[C@@H](CCC(=O)O)C(=O)N[C@@H](CC(=O)O)C(N)=O)C(C)C)[C@@H](C)O)C(C)C [PWAIVWGPTVARED] (Ac-PWAIVWGPTVARED-NH2)
- Ki [2]: 480 ± 4 nM

Compound: CC(=O)N[C@@H](Cc1c[nH]c2ccccc12)C(=O)NCC(=O)NCC(=O)N[C@@H](C)C(=O)N[C@@H](CC(=O)O)C(=O)N[C@H](C(=O)N[C@@H](CC(=O)O)C(=O)N[C@@H](Cc1ccc(O)cc1)C(=O)N[C@@H](C)C(=O)N[C@@H](CC(=O)O)C(N)=O)[C@@H](C)O (Ac-WGGADTDYAD-NH2)
- Ki [4]: > 62500 nM

Compound: CC[C@H](C)[C@H](NC(=O)[C@H](Cc1c[nH]c2ccccc12)NC(=O)[C@H](CC(=O)O)NC(=O)[C@H](CC(=O)O)NC(=O)[C@H](CC(=O)O)NC(=O)[C@H](CCC(=O)O)NC(=O)[C@H](CCCNC(=N)N)NC(=O)[C@H](CCCNC(=N)N)NC(=O)[C@H](CCCNC(=N)N)NC(=O)[C@H](CCCNC(=N)N)NC(=O)[C@H](CCCNC(=N)N)NC(=O)[C@H](CCCNC(=N)N)NC(=O)[C@H](CCCNC(=N)N)NC(C)=O)C(=O)N[C@@H](CC(=O)O)C(=O)N[C@@H](Cc1c[nH]c2ccccc12)C(=O)N[C@@H](Cc1ccc(O)cc1)C(=O)N[C@@H](CC(=O)O)C(=O)N[C@@H](CO)C(=O)N[C@@H](CC(=O)O)C(=O)N[C@@H](CC(=O)O)C(=O)N[C@@H](CC(=O)O)C(N)=O (Ac-RRRRRRREDDDWIDWYDSDDD-NH2)
- Ki [5]: 89.1 ± 3 nM

Continued, values first:

- Ki (Table 10, deep mutational scanning validation variants of APPWT, read-out: Ki (nM) mean ± SEM): 459 ± 21 nM
Compound: CC(=O)N[C@@H](CCC(=O)O)C(=O)N[C@@H](CC(=O)O)C(=O)N[C@@H](CC(=O)O)C(=O)N[C@@H](CO)C(=O)N[C@@H](CC(=O)O)C(=O)N[C@H](C(=O)N[C@@H](Cc1c[nH]c2ccccc12)C(=O)N[C@@H](Cc1c[nH]c2ccccc12)C(=O)NCC(=O)NCC(=O)N[C@@H](C)C(=O)N[C@@H](CC(=O)O)C(=O)N[C@@H](Cc1c[nH]c2ccccc12)C(=O)N[C@@H](CC(=O)O)C(N)=O)C(C)C (Ac-EDDSDVWWGGADWD-NH2)

- Ki [1]: 1500 ± 50 nM
Compound: CC[C@H](C)[C@H](NC(=O)[C@H](C)NC(=O)[C@H](Cc1c[nH]cn1)NC(=O)[C@@H]1CCCN1C(C)=O)C(=O)N[C@H](C(=O)N[C@@H](Cc1c[nH]c2ccccc12)C(=O)NCC(=O)N1CCC[C@H]1C(=O)N[C@H](C(=O)N[C@H](C(=O)N[C@@H](CO)C(=O)N[C@@H](CCCNC(=N)N)C(=O)N[C@@H](CCC(=O)O)C(=O)N[C@@H](CC(=O)O)C(N)=O)C(C)C)[C@@H](C)O)C(C)C [PHAIVWGPTVSRED] (Ac-PHAIVWGPTVSRED-NH2)

- Ki (Table 8, Ala-, D-amino acids and N-methylation scans of AJAP-1WT, read-out: Ki (nM) mean ± SEM): 37 ± 2 nM
Compound: CC[C@H](C)[C@H](NC(=O)[C@H](Cc1ccccc1)NC(=O)[C@H](CCC(=O)O)NC(=O)[C@H]([C@@H](C)O)N(C)C(=O)[C@H](CCC(=O)O)NC(C)=O)C(=O)N[C@@H](C)C(=O)N[C@@H](Cc1c[nH]c2ccccc12)C(=O)NCC(=O)N1CCC[C@H]1C(=O)N[C@H](C(=O)NCC(=O)N[C@@H](CC(=O)O)C(=O)N[C@@H](CCC(=O)O)C(=O)N[C@@H](CC(=O)O)C(N)=O)[C@@H](C)O [E(N-Me-T)EFIAWGPTGDED] (Ac-E[NMeT]EFIAWGPTGDED-NH2)

- Ki [3]: 716 ± 6 nM
Compound: CC[C@H](C)[C@H](NC(=O)[C@H](C)NC(=O)[C@H](Cc1c[nH]c2ccccc12)NC(=O)[C@@H]1CCCN1C(C)=O)C(=O)N[C@H](C(=O)N[C@@H](Cc1c[nH]c2ccccc12)C(=O)NCC(=O)N1CCC[C@H]1C(=O)N[C@H](C(N)=O)[C@@H](C)O)C(C)C (Ac-PWAIVWGPT-NH2)

- Ki [3]: 597 ± 7 nM
Compound: CC[C@H](C)[C@H](NC(=O)[C@H](C)NC(=O)[C@H](Cc1c[nH]c2ccccc12)NC(=O)[C@@H]1CCCN1C(C)=O)C(=O)N[C@H](C(=O)N[C@@H](Cc1c[nH]c2ccccc12)C(=O)NCC(=O)N1CCC[C@H]1C(N)=O)C(C)C (Ac-PWAIVWGP-NH2)

- Ki [4]: 247 ± 7 nM
Compound: CC(=O)N[C@@H](CC(=O)O)C(=O)N[C@@H](C)C(=O)N[C@@H](CCC(=O)O)C(=O)N[C@@H](CCC(=O)O)C(=O)N[C@@H](CC(=O)O)C(=O)N[C@@H](CC(=O)O)C(=O)N[C@@H](CO)C(=O)N[C@@H](CC(=O)O)C(=O)N[C@H](C(=O)N[C@@H](Cc1c[nH]c2ccccc12)C(=O)N[C@@H](Cc1c[nH]c2ccccc12)C(=O)NCC(=O)NCC(=O)N[C@@H](C)C(=O)N[C@@H](CC(=O)O)C(=O)N[C@H](C(=O)N[C@@H](CC(=O)O)C(=O)N[C@@H](Cc1ccc(O)cc1)C(=O)N[C@@H](C)C(=O)N[C@@H](CC(=O)O)C(N)=O)[C@@H](C)O)C(C)C (Ac-DAEEDDSDVWWGGADTDYAD-NH2)

- Ki [4]: 356 ± 11 nM
Compound: CC(=O)N[C@@H](CCC(=O)O)C(=O)N[C@@H](CCC(=O)O)C(=O)N[C@@H](CC(=O)O)C(=O)N[C@@H](CC(=O)O)C(=O)N[C@@H](CO)C(=O)N[C@@H](CC(=O)O)C(=O)N[C@H](C(=O)N[C@@H](Cc1c[nH]c2ccccc12)C(=O)N[C@@H](Cc1c[nH]c2ccccc12)C(=O)NCC(=O)NCC(=O)N[C@@H](C)C(=O)N[C@@H](CC(=O)O)C(=O)N[C@H](C(=O)N[C@@H](CC(=O)O)C(=O)N[C@@H](Cc1ccc(O)cc1)C(=O)N[C@@H](C)C(=O)N[C@@H](CC(=O)O)C(=O)NCC(=O)NCC(=O)N[C@@H](CCC(=O)O)C(=O)N[C@@H](CC(=O)O)C(N)=O)[C@@H](C)O)C(C)C (Ac-EEDDSDVWWGGADTDYADGGED-NH2)

- Ki (Table 7, Ala-, D-amino acids and N-methylation scans of APPWT, read-out: Ki (nM) mean ± SEM): 3076 ± 22 nM
Compound: CC(=O)N[C@@H](CCC(=O)O)C(=O)N[C@@H](CC(=O)O)C(=O)N[C@@H](CC(=O)O)C(=O)N[C@@H](CO)C(=O)N[C@@H](C)C(=O)N[C@H](C(=O)N[C@@H](Cc1c[nH]c2ccccc12)C(=O)N[C@@H](Cc1c[nH]c2ccccc12)C(=O)NCC(=O)NCC(=O)N[C@@H](C)C(=O)N[C@@H](CC(=O)O)C(=O)N[C@H](C(=O)N[C@@H](CC(=O)O)C(N)=O)[C@@H](C)O)C(C)C (Ac-EDDSAVWWGGADTD-NH2)

- Ki [5]: 32 ± 1 nM
Compound: CC[C@H](C)[C@H](NC(=O)[C@H](Cc1c[nH]c2ccccc12)NC(=O)[C@H](CC(=O)O)NC(=O)[C@H](CC(=O)O)NC(=O)[C@H](CC(=O)O)NC(=O)[C@H](CCC(=O)O)NC(=O)[C@H](CCCNC(=N)N)NC(=O)[C@H](CCCNC(=N)N)NC(=O)[C@H](CCCNC(=N)N)NC(=O)[C@H](CCCNC(=N)N)NC(=O)[C@H](CCCNC(=N)N)NC(C)=O)C(=O)N[C@@H](CC(=O)O)C(=O)N[C@@H](Cc1c[nH]c2ccccc12)C(=O)NCC(=O)N1CCC[C@H]1C(=O)N[C@H](C(=O)N[C@@H](CO)C(=O)N[C@@H](CC(=O)O)C(=O)N[C@@H](CC(=O)O)C(=O)N[C@@H](CC(=O)O)C(N)=O)[C@@H](C)O (Ac-RRRRREDDDWIDWGPTSDDD-NH2)
